Data from article PMC7238241, “Lack of Correlation between In Vitro and In Vivo Studies on the Inhibitory Effects of (‒)-Sophoranone on CYP2C9 Is Attributable to Low Oral Absorption and Extensive Plasma Protein Binding of (‒)-Sophoranone” (Pharmaceutics, 2020).
“And” between values parts separate entries of the source, which are not always exact repeats. Equal entries are not always repeated. Where two headings read alike, the source gives them in different places.

Key:
CYP3A4 = system: CYP3A4; set-up: method as in PMID 29753067; details: cited from earlier work
[1] = Effects of SPN on the pharmacokinetics of diclofenac in rats; details: rats
Protocol: The carotid arteries of each rat were cannulated with a polyethylene tube (Clay Adams, Franklin Lakes, NJ, USA) for blood sampling. Each rat was individually housed in a rat metabolic cage and allowed to recover from anesthesia for 4–5 h prior to the start of the experiment. […] SPN was suspended in dimethylsulfoxide:PEG400:distilled water (5:60:35, v/v/v) and administered by oral gavage at a dose of 75 mg/kg in a volume of 5 mL/kg. […] The blood samples were immediately centrifuged at 13,000× g for 5 min at 4 °C. The plasma samples were divided into two Eppendorf tubes by 50 μL and stored at −80 °C until LC-MS/MS analysis.
Briefly, 50 μL aliquots of plasma were extracted with 300 μL aliquots of acetonitrile containing chlorpropamide (internal standard), followed by LC-MS/MS (Shimadzu Corporation). Chromatographic separation was performed on a Phenomenex Luna C18 column (100 × 2.00 mm; 3.0 μm). The isocratic mobile phase consisted of 0.1% formic acid in distilled water (A) and 0.1% formic acid in acetonitrile (B) (45:55, v/v), with a flow rate of 0.3 mL/min. […] The data acquisition was computed using LabSolutions LCMS Ver.5.6 (Shimadzu Corporation).
Pharmacokinetic parameters were calculated by a non-compartmental analysis using WinNonlin Professional software (version 5.2, Pharsight Corp., Mountain View, CA, USA) that used the total area under the plasma concentration–time curve from time zero to infinity (AUC∞) or the last measured time (AUCt). The logarithmic trapezoidal rule was used during the declining plasma level phase and the linear trapezoidal rule was used for the rising plasma-level phase. The peak plasma concentration (Cmax) and time to reach Cmax (Tmax) were read directly from the experimental data. Statistically significant differences were recognized at p < 0.05.

[2] = Unbound fraction in human plasma (rapid equilibrium dialysis); type: in vitro ADME
Protocol: The plasma or liver microsomal protein bindings were performed using a rapid equilibrium dialysis device and cellulose membranes with a molecular weight cutoff of 8000 (Thermo Scientific, Rockford, IL, USA). The rat and human plasma samples (200 μL) containing SPN at 10 and 50 μM, respectively, were dialyzed against a dialysis buffer, phosphate-buffered saline (PBS, 400 μL). The loaded dialysis plate was covered with sealing tape, placed on an orbital shaker at approximately 200 rpm, and incubated at 37 °C for 4 h. Thereafter, samples (100 μL) from both PBS and plasma chambers were collected and mixed with an equal volume of blank plasma and PBS, respectively. All samples were stored at −80 °C until LC-MS/MS analysis. The unbound fraction of SPN in human (or rat) plasma was calculated by dividing the SPN concentration in PBS by that in plasma.

CYP2E1 = target: T1, CYP2E1 (Homo sapiens, UniProt P05181); test: Reversible CYP2E1 inhibition, cocktail assay (chlorzoxazone 6-hydroxylase) in human liver microsomes; type: biochemical
T1 construct: tissue Corning Life Sciences; host or cells: pooled human liver microsomes, 150 donors
Protocol: The inhibitory effects of SPN on CYP1A2, CYP2A6, CYP2B6, CYP2C8, CYP2C9, CYP2C19, CYP2D6, CYP2E1, and CYP3A4 were evaluated in pooled human liver microsomes through the use of specific CYP probe substrates (cocktail assay), as previously described with a slight modification. Concentrations of each CYP probe in Table 1 were used close to their reported Km values.
Briefly, a 90-µL incubation mixture, including pooled human liver microsomes (final concentration 0.1 mg/mL), 50 mM phosphate buffer (pH 7.4), each CYP-probe substrate cocktail set, and SPN (0–50 μM), was pre-incubated for 5 min at 37 °C. SPN was dissolved in methanol and spiked into the incubation mixture to a final concentration of 0.5% methanol. All P450-selective substrates (except coumarin due to solubility) were dissolved in methanol and serially diluted with methanol to the required concentrations, and the organic solvent was subsequently evaporated under a gentle stream of N2 gas to minimize the effects of organic solvents on CYP activities. On the other hand, coumarin dissolved in 50 mM phosphate buffer (pH 7.4) was directly added into the mixed tube. The reaction was initiated by adding 10-µL aliquot of NADPH-generating system (1.3 mM NADP^+, 3.3 mM glucose 6-phosphate, 3.3 mM MgCl2, and 0.4 unit/mL glucose-6-phosphate dehydrogenase) before 15 min incubation at 37 °C in a shaking water bath. […]
The IC50 values were calculated via nonlinear least-squares regression analysis from logarithmic plots of inhibitor concentration versus percentage of activity remaining after inhibition, using SigmaPlot (ver. 14.0; Systat Software Inc, Chicago, IL, USA). The Ki values were determined from the equations for a single substrate single inhibitor model and the software available in the SigmaPlot Enzyme Kinetics module. Competitive, non-competitive, uncompetitive, or mixed inhibition models were evaluated and ranked according to the best fit based on Akaike Information Criterion (AIC) values. […]

CYP2C9 = target: T2, CYP2C9 (Homo sapiens, UniProt P11712); test: Determination of Ki and inhibition type on CYP2C9 activity in human liver microsomes; type: biochemical; details: for Ki: human liver microsomes, n = 3
T2 construct: tissue Corning Life Sciences; host or cells: pooled human liver microsomes, 150 donors
Protocol: Based on the IC50 values, the Ki values of SPN on CYP2C9 activity were determined. […] Other procedures were similar to those of the reversible inhibition studies. All incubations were performed in triplicate, and the data are shown as the mean ± standard deviation.
The IC50 values were calculated via nonlinear least-squares regression analysis from logarithmic plots of inhibitor concentration versus percentage of activity remaining after inhibition, using SigmaPlot (ver. 14.0; Systat Software Inc, Chicago, IL, USA). The Ki values were determined from the equations for a single substrate single inhibitor model and the software available in the SigmaPlot Enzyme Kinetics module. Competitive, non-competitive, uncompetitive, or mixed inhibition models were evaluated and ranked according to the best fit based on Akaike Information Criterion (AIC) values. For visual inspection, the data were presented as Dixon plots.

T2 sequence (P11712 whole entry): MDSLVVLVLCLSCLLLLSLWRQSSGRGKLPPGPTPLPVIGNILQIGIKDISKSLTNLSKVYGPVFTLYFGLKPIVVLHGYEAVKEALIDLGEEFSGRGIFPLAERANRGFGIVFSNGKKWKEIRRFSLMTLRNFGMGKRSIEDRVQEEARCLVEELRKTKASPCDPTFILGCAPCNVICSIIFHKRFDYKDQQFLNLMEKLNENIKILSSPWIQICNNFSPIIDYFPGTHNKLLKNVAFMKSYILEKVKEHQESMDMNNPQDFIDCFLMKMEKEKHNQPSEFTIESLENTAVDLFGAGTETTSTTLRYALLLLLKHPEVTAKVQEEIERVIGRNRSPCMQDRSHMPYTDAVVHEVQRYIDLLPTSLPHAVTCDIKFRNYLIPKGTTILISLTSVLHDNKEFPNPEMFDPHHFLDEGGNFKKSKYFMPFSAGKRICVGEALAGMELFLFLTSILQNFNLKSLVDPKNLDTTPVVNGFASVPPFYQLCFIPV
T1 sequence (P05181 whole entry): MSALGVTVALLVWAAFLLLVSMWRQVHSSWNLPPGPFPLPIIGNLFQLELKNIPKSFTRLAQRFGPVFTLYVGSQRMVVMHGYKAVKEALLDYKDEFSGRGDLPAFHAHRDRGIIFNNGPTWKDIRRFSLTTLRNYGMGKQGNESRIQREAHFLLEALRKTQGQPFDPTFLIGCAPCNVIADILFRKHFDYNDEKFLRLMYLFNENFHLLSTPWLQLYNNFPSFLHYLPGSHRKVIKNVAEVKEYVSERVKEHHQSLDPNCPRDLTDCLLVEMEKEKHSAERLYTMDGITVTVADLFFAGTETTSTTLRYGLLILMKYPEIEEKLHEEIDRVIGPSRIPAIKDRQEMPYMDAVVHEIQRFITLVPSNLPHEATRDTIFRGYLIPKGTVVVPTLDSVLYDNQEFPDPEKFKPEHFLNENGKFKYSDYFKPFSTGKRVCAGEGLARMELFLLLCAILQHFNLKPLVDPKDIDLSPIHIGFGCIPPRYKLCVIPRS

Structure (SMILES): CC(C)=CCc1cc([C@@H]2CC(=O)c3ccc(O)c(CC=C(C)C)c3O2)cc(CC=C(C)C)c1O [SPN, (‒)-Sophoranone]
- IC50 (CYP3A4; range over other CYP3A4 substrates): 5.62 to 38.4 µM
- Ki (CYP3A4; read-out: Ki, CYP3A4-catalyzed bufalin 5′-hydroxylation): 2.17 ± 0.29 µM
- Cmax ([1]; male, Sprague-Dawley, rat, plasma, po, Cmax of SPN, oral SPN 75 mg/kg co-administered with diclofenac 2 mg/kg, n = 6): 33.7 ng/mL and 73.2 nM
- effect of co-administration on the pharmacokinetics of diclofenac and 4′-hydroxydiclofenac ([1]; oral SPN 75 mg/kg 15 min before oral diclofenac 2 mg/kg): did not alter the pharmacokinetics of diclofenac and 4′-hydroxydiclofenac
- Imax,u (unbound maximum concentration in plasma) ([1]; oral SPN 75 mg/kg, Cmax corrected for plasma protein binding): 0.0420 ± 0.0184 nM
- fraction unbound at 4 h, 10 µM ([2]; human, human plasma, 10 μM, 37 °C, 4 h, n = 3, read-out: free fraction in human plasma): 0.000457 ± 6.12e-05
- fraction unbound at 4 h, 50 µM ([2]; human, human plasma, 50 μM, 37 °C, 4 h, n = 3, read-out: free fraction in human plasma): 0.000927 ± 0.0004
- fraction unbound at 4 h ([2]; human, human plasma, 10 and 50 μM, read-out: plasma protein binding, human): < 0.001
- fraction unbound at 4 h ([2]; mean over human and rat plasma in the range of 10 and 50 μM, read-out: mean unbound fraction in plasma): 0.000574
- residual enzyme activity, CYP2E1 (CYP2E1; at the highest tested concentration (50 μM)): greater than 80%
- IC50 (CYP2E1; human liver microsomes 0.1 mg/mL, cocktail assay, chlorzoxazone probe, n = 3, read-out: IC50 Values, CYP2E1): > 50 µM
- Ki (CYP2C9; Ki values, CYP2C9 probe diclofenac, diclofenac 2, 5, and 10 µM): 0.587 ± 0.047 µM
- Mode of inhibition, CYP2C9 probe diclofenac (CYP2C9; best fit based on AIC values): Competitive
- Mode of inhibition, CYP2C9 probe tolbutamide (CYP2C9; best fit based on AIC values): Competitive
- Ki (CYP2C9; tolbutamide 50, 100, and 150 µM, read-out: Ki values, CYP2C9 probe tolbutamide): 0.503 ± 0.0383 µM
